Laboratory results reported in US8404670B2 (Sunovion Pharmaceuticals Inc., priority 2009, dated 2013).

target: T1, human histamine H3 receptor (Homo sapiens, UniProt Q9Y5N1); experiment: H3 GTPγS assay (SPA method), histamine H3 in vitro assay; format: biochemical; conditions: GTPγ[35S] binding to membranes of cells expressing human H3; antagonist mode with R-γ-Me-Histamine at EC80 (30 nM); in one embodiment HCl salts tested; read-out: Potency (functional potency as indicated by IC50)
T1 construct: host or cells: cells expressing the human H3 receptor
Description: H3 GTPγS assay (SPA method) was performed at EuroScreen (Belgium, ES-392-C) using conventional methods. Briefly, cells expressing the human histamine H3 receptor were homogenized in 15 mM Tris-HCl pH 7.5, 2 mM MgCl2, 0.3 mM EDTA, and 1 mM EGTA. Membranes were washed twice in the above tris buffer, collected by centrifugation (40,000×g, 25 min), and re-suspended in 75 mM Tris-HCl pH 7.5, 12.5 mM MgCl2, 0.3 mM EDTA, 1 mM EGTA, and 250 mM sucrose. Membranes were frozen in liquid nitrogen until use. On the day of the assay, membranes were thawed and diluted in assay buffer (20 mM HEPES pH 7.4, 100 mM NaCl, 10 μg/ml saponin, 1 mM MgCl2) to give 500 μg/ml and mixed (v/v) with GDP in assay buffer for a final GDP concentration of 10 μM and incubated on ice for at least 15 min. PVT-WGA beads (Amersham, RPNQ001) were diluted in assay buffer at 50 mg/mL and mixed with GTPγ[^35S] (Amersham, SJ1308) diluted in assay buffer to give ˜25,000 dpm/10 μL and mixed vol/vol just before the start of the reaction. The reaction was started by adding 50 μL of test compound, 20 μL of the membranes:GDP mix, 10 μL of buffer, and 20 μL of the GTPγ[^35S]:beads mix in a 96 well plate Optiplate™ (PerkinElmer, 6005299) covered with topseal (TopCount™, PerkinElmer), mixed with an orbital shaker for 2 min, incubated for 1 hour at room temperature, centrifuged for 10 min at 2000 rpm, incubated for 1 h at room temperature, and counted for 1 min in a TopCount™ reader (PerkinElmer). Dose response curves and IC50 values (concentration to inhibit the reaction by 50%) were calculated by nonlinear regression using XLfit software (IDBS).
For antagonists testing, 10 μL of a reference agonist (R-γ-Me-Histamine) instead of 10 μL buffer was added at a concentration corresponding to the EC80 (30 nM). Control ligands were R-γ-Me-Histamine (Tocris, 0569), Imetit (Sigma, I-135), Thioperamide (Tocris, 0644), and Clobenpropit (Tocris, 0754) diluted in assay buffer.
The compounds provided herein were tested in the histamine H3 in vitro assay. In one embodiment, the respective HCl salts of the compounds provided herein were prepared using standard chemical procedures and tested in the histamine H3 in vitro assay.

T1 sequence (Q9Y5N1 whole entry): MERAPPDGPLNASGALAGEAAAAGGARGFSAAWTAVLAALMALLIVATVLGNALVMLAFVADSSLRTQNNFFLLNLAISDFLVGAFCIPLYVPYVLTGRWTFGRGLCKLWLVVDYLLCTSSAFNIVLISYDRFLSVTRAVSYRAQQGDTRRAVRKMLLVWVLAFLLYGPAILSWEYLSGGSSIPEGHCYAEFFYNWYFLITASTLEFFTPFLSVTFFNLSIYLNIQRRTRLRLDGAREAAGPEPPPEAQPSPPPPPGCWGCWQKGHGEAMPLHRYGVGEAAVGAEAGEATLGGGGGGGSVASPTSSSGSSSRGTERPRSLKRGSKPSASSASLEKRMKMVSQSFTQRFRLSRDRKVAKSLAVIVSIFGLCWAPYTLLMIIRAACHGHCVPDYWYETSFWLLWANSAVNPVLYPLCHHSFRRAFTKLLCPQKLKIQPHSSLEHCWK

IC50 | Structure (SMILES)
≤ 0.1 µM | Clc1ccc(-c2ccc3c(c2)nc2n3CCN(C3CCC3)CC2)cc1Cl [Compound 211, 3-cyclobutyl-8-(3,4-dichlorophenyl)-2,3,4,5-tetrahydro-1H-benzo[4,5]imidazo[1,2-d][1,4]diazepine]
≤ 1 µM | N#Cc1ccc2c(c1)nc1n2CCN(C2CCC2)CC1 [Compound 54]
≤ 0.1 µM | c1cc2nc(-c3ccc4c(c3)nc3n4CCN(C4CCC4)CC3)cnc2[nH]1 [Compound 199, 3-cyclobutyl-8-(5H-pyrrolo[2,3-b]pyrazin-2-yl)-2,3,4,5-tetrahydro-1H-benzo[4,5]imidazo[1,2-d][1,4]diazepine]
≤ 0.01 µM | c1c2c(cc3c1nc1n3CCN(C3CCC3)CC1)CN(CC1CC1)C2 [Compound 147, 8-cyclobutyl-2-(cyclopropylmethyl)-1,2,3,6,7,8,9,10-octahydro-[1,4]diazepino[1′,7′:1,2]imidazo[4,5-f]isoindole]
≥ 1 µM | CN1CCC(N2CCc3nc4cc(-c5ccc6[nH]ccc6c5)ccc4n3CC2)CC1 [Compound 13]
≥ 1 µM | Brc1cnc2c(c1)nc1n2CCN(C2CCC2)CC1 [Compound 235, 7-Aza-3-cyclobutyl-9-bromo-2,3,4,5-tetrahydro-1H-[1,4]diazepino[1,7-a]benzimidazole]
≤ 0.01 µM | CC1CCCC1N1CCc2nc3cc(-c4ccc(C#N)cc4)ccc3n2CC1 (racemic) [Compound 35, rac-cis/trans-4-(3-(2-methylcyclopentyl)-2,3,4,5-tetrahydro-1H-[1,4]diazepino[1,7-a]benzimidazol-9-yl)benzonitrile]
≤ 0.01 µM | c1cc2c(cc1N1CCN(C3CCOCC3)CC1)nc1n2CCN(C2CCC2)CC1 [Compound 103, 3-cyclobutyl-9-(4-(tetrahydro-2H-pyran-4-yl)piperazin-1-yl)-2,3,4,5-tetrahydro-1H-[1,4]diazepino[1,7-a]benzimidazole]
≤ 0.01 µM | CC(=O)Nc1ccc(-c2ccc3c(c2)nc2n3CCN(C3CCC3)CC2)cc1 [Compound 3]
≤ 0.01 µM | c1ncc(-c2ccc3c(c2)nc2n3CCN(C3CCC3)CC2)cn1 [Compound 126, 3-cyclobutyl-8-(pyrimidin-5-yl)-2,3,4,5-tetrahydro-1H-benzo[4,5]imidazo[1,2-d][1,4]diazepine]
≤ 0.1 µM | FC1(F)CCN(c2ccc3c(c2)nc2n3CCN(C3CCC3)CC2)C1 [Compound 182, 3-cyclobutyl-8-(3,3-difluoropyrrolidin-1-yl)-2,3,4,5-tetrahydro-1H-benzo[4,5]imidazo[1,2-d][1,4]diazepine]
≤ 0.01 µM | c1cc2nc3n(c2cc1CN1CCCC1)CCN(C1CCC1)CC3 [Compound 89]
≥ 1 µM | c1cnc(N2Cc3cc4nc5n(c4cc3C2)CCN(C2CCC2)CC5)cn1 [Compound 149, 8-cyclobutyl-2-(pyrazin-2-yl)-1,2,3,6,7,8,9,10-octahydro-[1,4]diazepino[1′,7′:1,2]imidazo[4,5-f]isoindole]
≤ 0.1 µM | c1ncn(-c2ccc3c(c2)nc2n3CCN(C3CCC3)CC2)n1 [Compound 152, 3-cyclobutyl-8-(1H-1,2,4-triazol-1-yl)-2,3,4,5-tetrahydro-1H-benzo[4,5]imidazo[1,2-d][1,4]diazepine]
≤ 0.01 µM | c1cnc(N2CCCC(c3ccc4c(c3)nc3n4CCN(C4CCC4)CC3)C2)cn1 (centres unmarked) [Compound 129, 3-cyclobutyl-8-(1-(pyrazin-2-yl)piperidin-3-yl)-2,3,4,5-tetrahydro-1H-benzo[4,5]imidazo[1,2-d][1,4]diazepine]
≤ 0.1 µM | COc1ccnc(Nc2ccc3c(c2)nc2n3CCN(C3CCC3)CC2)n1 [Compound 64]
≤ 0.1 µM | O=C(c1ccc2c(c1)nc1n2CCN(C2CCC2)CC1)N1CCOCC1 [Compound 56]
≤ 0.01 µM | CC(=O)N1CCCC(c2ccc3c(c2)nc2n3CCN(C3CCC3)CC2)C1 (centres unmarked) [Compound 171, 1-(3-(3-cyclobutyl-2,3,4,5-tetrahydro-1H-benzo[4,5]imidazo[1,2-d][1,4]diazepin-8-yl)piperidin-1-yl)ethanone]

IC50 | Structure (SMILES)
≤ 0.1 µM | c1cc2c(cc1-c1ccc(N3CCCC3)nn1)nc1n2CCN(C2CCC2)CC1 [Compound 133, 3-cyclobutyl-8-(6-(pyrrolidin-1-yl)pyridazin-3-yl)-2,3,4,5-tetrahydro-1H-benzo[4,5]imidazo[1,2-d][1,4]diazepine]
≤ 0.1 µM | N#Cc1ccc(CNc2ccc3nc4n(c3c2)CCN(C2CCC2)CC4)cc1 [Compound 81]
≤ 0.01 µM | N#Cc1ccc(-c2ccc3c(c2)nc2n3CCN(C3CCC3)CC2)cc1 [Compound 2]
≥ 1 µM | Clc1ccc2c(c1)nc1n2CCN(Cc2cnc[nH]2)CC1 [Compound 15]
≤ 0.01 µM | c1cnc(N2CCc3cc4nc5n(c4cc3C2)CCN(C2CCC2)CC5)cn1 [Compound 190, 9-cyclobutyl-2-(pyrazin-2-yl)-2,3,4,7,8,9,10,11-octahydro-1H-[1,4]diazepino[1′,7′:1,2]imidazo[4,5-g]isoquinoline]
≤ 0.01 µM | c1cnc2[nH]cc(-c3ccc4c(c3)nc3n4CCN(C4CCC4)CC3)c2c1 [Compound 31]
≤ 0.01 µM | N#Cc1ccc(COc2ccc3c(c2)nc2n3CCN(C3CCC3)CC2)cc1 [Compound 53]
≤ 0.01 µM | CN1Cc2cc3nc4n(c3cc2C1)CCN(C1CCC1)CC4 [Compound 146, 8-cyclobutyl-2-methyl-1,2,3,6,7,8,9,10-octahydro-[1,4]diazepino[1′,7′:1,2]imidazo[4,5-f]isoindole]
≤ 0.01 µM | c1cc2c(cc1N1CCN(C3CCCCC3)CC1)nc1n2CCN(C2CCC2)CC1 [Compound 102]
≤ 0.1 µM | O=C(c1ccc2c(c1)nc1n2CCN(C2CCC2)CC1)c1cnccn1 [Compound 121, (3-cyclobutyl-2,3,4,5-tetrahydro-1H-benzo[4,5]imidazo[1,2-d][1,4]diazepin-8-yl)(pyrazin-2-yl)methanone]
≤ 0.01 µM | CC(C)(C)c1ccc(-c2ccc3c(c2)nc2n3CCN(C3CCC3)CC2)cc1 [Compound 212, 8-(4-(tert-butyl)phenyl)-3-cyclobutyl-2,3,4,5-tetrahydro-1H-benzo[4,5]imidazo[1,2-d][1,4]diazepine]
≥ 1 µM | CC(=O)Nc1ccc(-c2ccc3c(c2)nc2n3CCN(Cc3cnc[nH]3)CC2)cc1 [Compound 19]
≤ 0.01 µM | c1cc2c(cc1-c1ccc3c(c1)nc1n3CCN(C3CCC3)CC1)OCO2 [Compound 210, 8-(benzo[d][1,3]dioxol-5-yl)-3-cyclobutyl-2,3,4,5-tetrahydro-1H-benzo[4,5]imidazo[1,2-d][1,4]diazepine]
≤ 0.01 µM | FC1(F)CCCN(Cc2ccc3c(c2)nc2n3CCN(C3CCC3)CC2)C1 [Compound 162, 3-cyclobutyl-8-((3,3-difluoropiperidin-1-yl)methyl)-2,3,4,5-tetrahydro-1H-benzo[4,5]imidazo[1,2-d][1,4]diazepine]
≤ 0.1 µM | c1cnc(-c2ccc3c(c2)nc2n3CCN(C3CCC3)CC2)nc1 [Compound 123, 3-cyclobutyl-8-(pyrimidin-2-yl)-2,3,4,5-tetrahydro-1H-benzo[4,5]imidazo[1,2-d][1,4]diazepine]
≤ 0.1 µM | NCCc1ccc2c(c1)nc1n2CCN(C2CCC2)CC1 [Compound 138, 2-(3-cyclobutyl-2,3,4,5-tetrahydro-1H-benzo[4,5]imidazo[1,2-d][1,4]diazepin-8-yl)ethanamine]
≤ 0.1 µM | N#Cc1ccc(OCc2ccc3c(c2)nc2n3CCN(C3CCC3)CC2)nc1 [Compound 108, 6-((3-cyclobutyl-2,3,4,5-tetrahydro-1H-[1,4]diazepino[1,7-a]benzimidazol-9-yl)methoxy)nicotino-nitrile]
